Tests used:
T98G glioblastoma cells = test: Cell proliferation / cell survival; format: cell-based, human; conditions: varying concentrations, 48 hours, dose dependent, FIG. 1
Protocol: B16 mouse melanoma cells, T98G glioblastoma cells, and MDA-MB-231 human breast cancer cells were treated with varying concentrations of GH for 48 hours with cell survival measured.

MDA-MB-231 cells = test: Glucose transport (2-NBDG accumulation); format: cell-based, human; conditions: MDA-MB-231, treated for one hour followed by 2-NBDG for one hour
From the text: Phloretin, a known glucose transport inhibitor, was used as a positive control. Accumulation of 2-NDGB was inhibited by phloretin by 54% in T98G cells, by 31% in B16 cells and by 74% in MDA-MB-231 cells. The first panel for each cell line represents unstained cells, the second stained with 2-NBDG for one hour, the third treated with GH for one hour followed by 2-NBDG for one hour and the fourth treated with phloretin for one hour followed by 2-NBDG for one hour.

[1] = system: Mia-PACA pancreatic cancer; test: Colony formation assay, combination with DHEA; format: cell-based, human; conditions: 24 h, FIG. 20
[2] = system: bulk tumor cells from two patients with Temodar (TMZ)-resistant glioblastoma; test: Combination cytotoxicity with Paw Paw acetogenin extract; format: cell-based, human; conditions: GH 4 μM, FIG. 11
From the text: (§1) Example 3: Paw Paw Extract.

[3] = system: cancer stem cell (CSC) populations from two patients with Temodar (TMZ)-resistant glioblastoma; test: as above; format: cell-based, human; conditions: GH 4 μM, FIG. 11
From the text: as §1

[4] = system: T98G human glioblastoma cells; test: Lactic acid accumulation in cell culture medium; format: cell-based; conditions: FIG. 2B
T98G cells [5] = test: Apoptosis, annexin V/propidium iodide (PI) staining; format: cell-based, human; conditions: FIG. 10
From the text: This additional target remains to be identified.

[6] = system: MDA-MB-231 human breast cancer cells; test: Lactic acid accumulation in cell culture medium; format: cell-based; conditions: MDA-MB-231, FIG. 2C
From the text: (§2) During cell survival experiments the acidification of the cell culture medium was inhibited when GH was present. Acidification of the cell culture medium occurs because of the enhanced use of glycolysis by transformed cells (and resulting increase in lactic acid production). This led us to investigate whether GH reduced lactic acid levels in the cell culture medium.

B16 mouse melanoma cells = test: Lactic acid accumulation in cell culture medium; format: cell-based; conditions: B16, FIG. 2A
From the text: as §2

ARRDC4 mRNA = test: Differential gene expression analysis (RNA-Seq) in T98G cells; format: cell-based, human; conditions: 2 hours, GH 8 μM, 2-DG 25 mM, Ph 100, minus = reduced, plus = increase, NC = no change
From the text: (§3) GH inhibits expression of TXNIP and ARRDC4 mRNAs. […] Since the transcription factors (MondoA/Mlx complex) regulating the expression of the TXNIP gene is thought to be controlled by intermediates in the upper portion of the glycolytic pathway (12), GH may be negatively impacting this portion of glycolysis. Reduction in the levels of these intermediates by GH would prevent activation of the MondoA/Mlx transcription complex and would result in suppression of TXNIP transcription and TXNIP mRNA levels. Both of these gene products (TXNIP and ARRDC4) are thought to suppress glucose transport by enhancing degradation of glucose transporters (12).

TXNIP mRNA = test: as above; format: cell-based, human; conditions: 2 hours, GH 8 μM, 2-DG 25 mM, Ph 100, minus = reduced, plus = increase, NC = no change
From the text: as §3

U87MG Glioma cells = test: Colony formation assay, combination with DHEA; format: cell-based, human; conditions: 24 h, FIG. 20
PA-1 Ovarian cancer = test: Colony formation assay, combination with DHEA; format: cell-based, human; conditions: PA-1, 24 h, FIG. 20
BT-549 = test: Combination cytotoxicity with phenformin; format: cell-based; conditions: BT-549, data not shown
[7] = system: BNC3 patient derived Glioblastoma cells; test: Colony formation assay, combination with DHEA; format: cell-based, human; conditions: BNC3, 24 h, FIG. 20
T98G cells [8] = test: Glucose transport (2-NBDG accumulation); format: cell-based, human; conditions: treated for one hour followed by 2-NBDG for one hour
SK-MEL = test: Combination cytotoxicity with phenformin; format: cell-based; conditions: data not shown
T98G cells [9] = test: Combination cytotoxicity with mitochondrial complex I inhibitors (% cell survival)
From the text: Example 2: Gnetin H In Combination with Mitochondrial Complex I Inhibitors. […] The plus signs above the combination treatment bars indicates the value of % cell survival if the anti-proliferative effect was additive.
In FIGS. 9 A-B., the plus signs are placed above the combination treatment bars at the % cell survival value if the anti-proliferative effect was additive. […] Both T98G and MDA-MB-231 cells lack functional p53 but B16 are p53 wild type.
Example 4: Peony Seed extract. […] T98G cells were treated with different concentrations of purified GH (numbers indicate μM) or PSE (numbers indicate μg/ml) alone or in combination with a Paw Paw (PP) extract (2 μg/ml) for 48 hrs (FIG. 12 A). The plus signs are placed above the combination treatment bars at the % cell survival value if the anti-proliferative effect was additive. […] T98G cells were treated with different concentrations of purified GH or PSE in combination with a Paw Paw extract (2 μg/ml) for 48 hrs (FIG. 12 B).

KHOS = test: Combination cytotoxicity with phenformin; format: cell-based; conditions: data not shown
[10] = system: cancer stem cells (CSCs) grown from BNC6 patient derived Glioblastoma cells; test: Cell viability by Trypan Blue exclusion cell count, combination with DHEA; format: cell-based, human; conditions: 24 h, FIGS. 22A-B
[11] = system: BNC6 patient derived Glioblastoma cells; test: Colony formation assay, combination with DHEA; format: cell-based, human; conditions: BNC6, 24 h, FIG. 20
SKOV-3 ovarian cancer = test: Colony formation assay, combination with DHEA; format: cell-based, human; conditions: SKOV-3, 24 h, FIG. 20
KB (HeLa) = test: Combination cytotoxicity with phenformin; format: cell-based; conditions: data not shown
[12] = system: BNC41 patient derived Glioblastoma cells; test: Colony formation assay, combination with DHEA; format: cell-based, human; conditions: BNC41, 24 h, FIG. 20
SK-OV3 = test: Combination cytotoxicity with phenformin; format: cell-based; conditions: SK-OV3, data not shown
Colo320DM colon cancer = test: Colony formation assay, combination with DHEA; format: cell-based, human; conditions: 24 h, FIG. 20

Oc1ccc(/C=C/c2c3c(cc4c2[C@H](c2cc(O)cc(O)c2)[C@@H](c2ccc(O)cc2)O4)O[C@H](c2ccc(O)cc2)[C@H]3c2cc(O)cc(O)c2)cc1 (relative stereo) [GH, trans-Gnetin H]
inhibition of cell proliferation (cell survival) (T98G glioblastoma cells): inhibits the proliferation | effect on accumulation of 2-NBDG (glucose transport) (MDA-MB-231 cells): did not influence the accumulation | cytotoxicity in combination with DHEA (cell staining) [1]: cytotoxic | synergistic cytotoxicity in combination with acetogenin extract from Paw Paw (PP-2 μg/ml) [2]: synergistically cytotoxic | synergistic cytotoxicity in combination with acetogenin extract from Paw Paw (PP-2 μg/ml) [3]: synergistically cytotoxic | lactic acid production [4]: inhibits lactic acid production | induction of apoptosis in combination with Paw Paw extract (PP) (T98G cells [5]): extensive induction of apoptosis | induction of apoptosis in combination with phenformin (Ph) (T98G cells [5]): extensive induction of apoptosis | lactic acid production [6]: inhibits lactic acid production | lactic acid production (B16 mouse melanoma cells): inhibits lactic acid production | ARRDC4 mRNA fold change (ARRDC4 mRNA): −6 fold | TXNIP mRNA fold change (TXNIP mRNA): −88 fold | cytotoxicity in combination with DHEA (cell staining) (U87MG Glioma cells): cytotoxic | cytotoxicity in combination with DHEA (cell staining) (PA-1 Ovarian cancer): cytotoxic | synergistic cytotoxicity with phenformin (BT-549): synergistically cytotoxic | cytotoxicity in combination with DHEA (cell staining) [7]: cytotoxic | effect on accumulation of 2-NBDG (glucose transport) (T98G cells [8]): did not influence the accumulation | synergistic cytotoxicity with phenformin (SK-MEL): synergistically cytotoxic | synergistic cytotoxicity in combination with Paw Paw (PP) extract (2 μg/ml) (T98G cells [9]): exhibited synergistic cytotoxicity | synergistic cytotoxicity in combination with acetogenins (PP) at 1 μg/ml (T98G cells [9]): synergistically cytotoxic | IC50 in combination with PP (T98G cells [9]; T98G, Paw Paw extract 2 μg/ml, 48 hrs, FIG. 12 B): 1.3 µg/mL | synergistic cytotoxicity with phenformin (KHOS): synergistically cytotoxic | cytotoxicity in combination with DHEA (percentage of cell viability) [10]: cytotoxic | cytotoxicity in combination with DHEA (cell staining) [11]: cytotoxic | cytotoxicity in combination with DHEA (cell staining) (SKOV-3 ovarian cancer): cytotoxic | synergistic cytotoxicity with phenformin (KB (HeLa)): synergistically cytotoxic | cytotoxicity in combination with DHEA (cell staining) [12]: cytotoxic | synergistic cytotoxicity with phenformin (SK-OV3): synergistically cytotoxic | cytotoxicity in combination with DHEA (cell staining) (Colo320DM colon cancer): cytotoxic
